Data as given in EPA's ToxValDB 9.5 (doi:10.2903/j.efsa.2009.269r).

Assays:
Aphidius rhopalosiphi = test: LR50; higher = less toxic; details: not reported; mortality
Daphnia magna = details: chronic/long-term; duration: 21 days; reproduction
Canidae = details: chronic; duration: 1 years; oral; Dog Other; organ weight
Apis mellifera = details: acute; duration: 48 hours; dermal; mortality
Folsomia candida = details: chronic/long-term; reproduction
Tagia sp. = details: mortality
Bibionidae = details: chronic/long-term; duration: 28 days
Rattus norvegicus = details: for NOAEL: histopathology: nonneoplastic
Anas platyrhynchos = details: acute; oral; unspecified; mortality

Question: Which LR50 (Aphidius rhopalosiphi) does the source give for `Clc1ccccc1-c1nnc(-c2ccccc2Cl)nn1` [Clofentezine] here?
Answer: The LR50 was 36.2 g/ha.

Question: What about the NOEC (Daphnia magna) of the same compound?
Answer: Its NOEC is 0.025 mg/L.

Question: What about the NOAEL (Canidae) of the same compound?
Answer: The NOAEL was 1.7 mg/kg-day.

Question: And the LD50 (Apis mellifera)?
Answer: The LD50 was > 84.5 µg/piece.

Question: And the NOEC (Folsomia candida)?
Answer: The NOEC was 160 mg/kg.

Question: And the LC50 (Tagia sp.; acute)?
Answer: Its LC50 is 430 mg/kg.

Question: What about the NOEC (Tagia sp.; chronic/long-term) of the same compound?
Answer: Its NOEC is 5310 mg/kg.

Question: What about the NOEC (Bibionidae) of the same compound?
Answer: The NOEC was 0.5 mg/L.

Question: What about the LD50 (Rattus norvegicus; acute, oral, mortality) of the same compound?
Answer: Its LD50 is > 5200 mg/kg-day.

Question: And the NOEC (Rattus norvegicus; chronic)?
Answer: Its NOEC is 40 mg/kg-day.

Question: What about the NOAEL (Rattus norvegicus; chronic, duration: 2 years) of the same compound?
Answer: The NOAEL was 2 mg/kg-day.

Question: What about the NOAEL (Rattus norvegicus; subchronic, duration: 90 days, oral) of the same compound?
Answer: The NOAEL was 2.65 mg/kg-day.

Question: And the LC50 (Oncorhynchus mykiss; acute, duration: 96 hours, mortality)?
Answer: Its LC50 is > 0.0146 mg/L.

Question: And the NOEC (Oncorhynchus mykiss; chronic/long-term, duration: 97 days)?
Answer: Its NOEC is 0.007 mg/L.

Question: What about the LD50 (Anas platyrhynchos) of the same compound?
Answer: The LD50 was > 3000 mg/kg-day.

Question: What about the LC50 (Colinus virginianus; acute, oral, diet, mortality) of the same compound?
Answer: The LC50 was > 4000 mg/kg-day.

Question: What about the NOEC (Colinus virginianus; reproduction developmental) of the same compound?
Answer: The NOEC was 7.62 mg/kg-day.
